# Species: Rattus norvegicus
# Experiment: DrugMatrix - Regimen: Daily Repeat
# Type: toxicity, organism-based, Sprague-Dawley
# Parameters: regimen Daily Repeat, gender Male, age 6-8 weeks
# Settings: in vivo, sc, route subcutaneous, […]; for ABSOLUTE BASOPHIL / ABSOLUTE EOSINOPHIL / ABSOLUTE LYMPHOCYTE / ABSOLUTE MONOCYTE / ABSOLUTE SEGMENTED NEUTROPHIL / BASOPHIL / EOSINOPHIL / ERYTHROCYTE COUNT / HEMATOCRIT / HEMOGLOBIN / LEUKOCYTE COUNT / LYMPHOCYTE / MEAN CORPUSCULAR HEMOGLOBIN / MEAN CORPUSCULAR HEMOGLOBIN CONCENTRATION / MEAN CORPUSCULAR VOLUME / MONOCYTE / NEUTROPHIL / NUCLEATED RED BLOOD CELLS / PLATELET COUNT: tissue Blood; for ALANINE AMINOTRANSFERASE / ALBUMIN / ALKALINE PHOSPHATASE / ASPARTATE AMINOTRANSFERASE / BLOOD UREA NITROGEN / CARBON DIOXIDE / CHLORIDE / CHOLESTEROL / CREATINE PHOSPHOKINASE / CREATININE / GLUCOSE / LACTATE DEHYDROGENASE / LIPASE / PHOSPHORUS / POTASSIUM / SODIUM / TOTAL BILIRUBIN / TOTAL PROTEIN / URIC ACID: tissue Plasma
# [1] = 0.4 mg/kg, 72 h, dose level Low, time 3 day
# [2] = 0.4 mg/kg, 120 h, dose level Low, time 5 day
# [3] = 4 mg/kg, 72 h, dose level High, time 3 day
# [4] = 4 mg/kg, 120 h, dose level High, time 5 day
smiles,measurement,setting,value
COc1cc([C@@H]2c3cc4c(cc3[C@H](O)[C@H]3COC(=O)[C@H]23)OCO4)cc(OC)c1OC [PODOFILOX],ABSOLUTE BASOPHIL,[1],0 CELLS/uL
same,ABSOLUTE EOSINOPHIL,[1],46.67 CELLS/uL
same,ABSOLUTE LYMPHOCYTE,[1],10326.67 CELLS/uL
same,ABSOLUTE MONOCYTE,[1],246 CELLS/uL
same,ABSOLUTE SEGMENTED NEUTROPHIL,[1],1114 CELLS/uL
same,BASOPHIL,[1],0%
same,EOSINOPHIL,[1],0.33%
same,ERYTHROCYTE COUNT,[1],5.36 x10E6/uL
same,HEMATOCRIT,[1],33.43%
same,HEMOGLOBIN,[1],12.37 G/DL
same,LEUKOCYTE COUNT,[1],11.73 x10E3/uL
same,LYMPHOCYTE,[1],88.33%
same,MEAN CORPUSCULAR HEMOGLOBIN,[1],23.07 pg
same,MEAN CORPUSCULAR HEMOGLOBIN CONCENTRATION,[1],37 G/DL
same,MEAN CORPUSCULAR VOLUME,[1],62.43 fL
same,MONOCYTE,[1],2%
same,NEUTROPHIL,[1],9.33%
same,NUCLEATED RED BLOOD CELLS,[1],0 /100WBC
same,PLATELET COUNT,[1],1280.67 x10E3/uL
same,ALANINE AMINOTRANSFERASE,[1],44.33 u/L
same,ALBUMIN,[1],3.33 G/DL
same,ALKALINE PHOSPHATASE,[1],320.67 u/L
same,ASPARTATE AMINOTRANSFERASE,[1],77.67 u/L
same,BLOOD UREA NITROGEN,[1],16.33 mg/dL
same,CARBON DIOXIDE,[1],27.33 mmol/L
same,CHLORIDE,[1],104.67 MEQ/L
same,CHOLESTEROL,[1],67.33 mg/dL
same,CREATINE PHOSPHOKINASE,[1],222.67 u/L
same,CREATININE,[1],0.2 mg/dL
same,GLUCOSE,[1],162 mg/dL
same,LACTATE DEHYDROGENASE,[1],146.67 u/L
same,LIPASE,[1],8 u/L
same,PHOSPHORUS,[1],12.87 mg/dL
same,POTASSIUM,[1],6.48 MEQ/L
same,SODIUM,[1],146.23 MEQ/L
same,TOTAL BILIRUBIN,[1],0.2 mg/dL
same,TOTAL PROTEIN,[1],5.23 G/DL
same,URIC ACID,[1],1.53 mg/dL
same,ABSOLUTE BASOPHIL,[2],0 CELLS/uL
same,ABSOLUTE EOSINOPHIL,[2],0 CELLS/uL
same,ABSOLUTE LYMPHOCYTE,[2],4413.33 CELLS/uL
same,ABSOLUTE MONOCYTE,[2],17.67 CELLS/uL
same,ABSOLUTE SEGMENTED NEUTROPHIL,[2],1569 CELLS/uL
same,BASOPHIL,[2],0%
same,EOSINOPHIL,[2],0%
same,ERYTHROCYTE COUNT,[2],5.41 x10E6/uL
same,HEMATOCRIT,[2],33.67%
same,HEMOGLOBIN,[2],12.57 G/DL
same,LEUKOCYTE COUNT,[2],6 x10E3/uL
same,LYMPHOCYTE,[2],73.67%
same,MEAN CORPUSCULAR HEMOGLOBIN,[2],23.23 pg
same,MEAN CORPUSCULAR HEMOGLOBIN CONCENTRATION,[2],37.33 G/DL
same,MEAN CORPUSCULAR VOLUME,[2],62.3 fL
same,MONOCYTE,[2],0.33%
same,NEUTROPHIL,[2],26%
same,NUCLEATED RED BLOOD CELLS,[2],0.67 /100WBC
same,PLATELET COUNT,[2],1853.33 x10E3/uL
same,ALANINE AMINOTRANSFERASE,[2],44.33 u/L
same,ALBUMIN,[2],4.03 G/DL
same,ALKALINE PHOSPHATASE,[2],296.33 u/L
same,ASPARTATE AMINOTRANSFERASE,[2],117 u/L
same,BLOOD UREA NITROGEN,[2],19.33 mg/dL
same,CARBON DIOXIDE,[2],26 mmol/L
same,CHLORIDE,[2],105.67 MEQ/L
same,CHOLESTEROL,[2],82.67 mg/dL
same,CREATINE PHOSPHOKINASE,[2],843.33 u/L
same,CREATININE,[2],0.2 mg/dL
same,GLUCOSE,[2],187.33 mg/dL
same,LACTATE DEHYDROGENASE,[2],167.67 u/L
same,LIPASE,[2],8.67 u/L
same,PHOSPHORUS,[2],11.4 mg/dL
same,POTASSIUM,[2],6.97 MEQ/L
same,SODIUM,[2],148.4 MEQ/L
same,TOTAL BILIRUBIN,[2],0.1 mg/dL
same,TOTAL PROTEIN,[2],6.7 G/DL
same,URIC ACID,[2],2.73 mg/dL
same,ABSOLUTE BASOPHIL,[3],0 CELLS/uL
same,ABSOLUTE EOSINOPHIL,[3],70.67 CELLS/uL
same,ABSOLUTE LYMPHOCYTE,[3],10536.33 CELLS/uL
same,ABSOLUTE MONOCYTE,[3],257.67 CELLS/uL
same,ABSOLUTE SEGMENTED NEUTROPHIL,[3],768.67 CELLS/uL
same,BASOPHIL,[3],0%
same,EOSINOPHIL,[3],0.67%
same,ERYTHROCYTE COUNT,[3],4.67 x10E6/uL
same,HEMATOCRIT,[3],29.03%
same,HEMOGLOBIN,[3],11 G/DL
same,LEUKOCYTE COUNT,[3],11.63 x10E3/uL
same,LYMPHOCYTE,[3],90.33%
same,MEAN CORPUSCULAR HEMOGLOBIN,[3],23.63 pg
same,MEAN CORPUSCULAR HEMOGLOBIN CONCENTRATION,[3],37.93 G/DL
same,MEAN CORPUSCULAR VOLUME,[3],62.43 fL
same,MONOCYTE,[3],2.33%
same,NEUTROPHIL,[3],6.67%
same,NUCLEATED RED BLOOD CELLS,[3],0.67 /100WBC
same,PLATELET COUNT,[3],1479.33 x10E3/uL
same,ALANINE AMINOTRANSFERASE,[3],36 u/L
same,ALBUMIN,[3],3.27 G/DL
same,ALKALINE PHOSPHATASE,[3],238.33 u/L
same,ASPARTATE AMINOTRANSFERASE,[3],81 u/L
same,BLOOD UREA NITROGEN,[3],15.33 mg/dL
same,CARBON DIOXIDE,[3],22.67 mmol/L
same,CHLORIDE,[3],105.67 MEQ/L
same,CHOLESTEROL,[3],61 mg/dL
same,CREATINE PHOSPHOKINASE,[3],371.33 u/L
same,CREATININE,[3],0.17 mg/dL
same,GLUCOSE,[3],145 mg/dL
same,LACTATE DEHYDROGENASE,[3],371.33 u/L
same,LIPASE,[3],7.67 u/L
same,PHOSPHORUS,[3],9.1 mg/dL
same,POTASSIUM,[3],6.96 MEQ/L
same,SODIUM,[3],144.97 MEQ/L
same,TOTAL BILIRUBIN,[3],0.17 mg/dL
same,TOTAL PROTEIN,[3],5.3 G/DL
same,URIC ACID,[3],1.73 mg/dL
same,ABSOLUTE BASOPHIL,[4],0 CELLS/uL
same,ABSOLUTE EOSINOPHIL,[4],0 CELLS/uL
same,ABSOLUTE LYMPHOCYTE,[4],6143.67 CELLS/uL
same,ABSOLUTE MONOCYTE,[4],159 CELLS/uL
same,ABSOLUTE SEGMENTED NEUTROPHIL,[4],330.67 CELLS/uL
same,BASOPHIL,[4],0%
same,EOSINOPHIL,[4],0%
same,ERYTHROCYTE COUNT,[4],5.45 x10E6/uL
same,HEMATOCRIT,[4],32.83%
same,HEMOGLOBIN,[4],12.27 G/DL
same,LEUKOCYTE COUNT,[4],6.63 x10E3/uL
same,LYMPHOCYTE,[4],93%
same,MEAN CORPUSCULAR HEMOGLOBIN,[4],22.5 pg
same,MEAN CORPUSCULAR HEMOGLOBIN CONCENTRATION,[4],37.37 G/DL
same,MEAN CORPUSCULAR VOLUME,[4],60.13 fL
same,MONOCYTE,[4],2.33%
same,NEUTROPHIL,[4],4.67%
same,NUCLEATED RED BLOOD CELLS,[4],0 /100WBC
same,PLATELET COUNT,[4],878 x10E3/uL
same,ALANINE AMINOTRANSFERASE,[4],45.67 u/L
same,ALBUMIN,[4],3.57 G/DL
same,ALKALINE PHOSPHATASE,[4],214.33 u/L
same,ASPARTATE AMINOTRANSFERASE,[4],96.33 u/L
same,BLOOD UREA NITROGEN,[4],18 mg/dL
same,CARBON DIOXIDE,[4],26.5 mmol/L
same,CHLORIDE,[4],104.5 MEQ/L
same,CHOLESTEROL,[4],69.5 mg/dL
same,CREATINE PHOSPHOKINASE,[4],269.67 u/L
same,CREATININE,[4],0.18 mg/dL
same,GLUCOSE,[4],163 mg/dL
same,LACTATE DEHYDROGENASE,[4],182.67 u/L
same,LIPASE,[4],8 u/L
same,PHOSPHORUS,[4],11.1 mg/dL
same,POTASSIUM,[4],5.69 MEQ/L
same,SODIUM,[4],146.25 MEQ/L
same,TOTAL BILIRUBIN,[4],0.1 mg/dL
same,TOTAL PROTEIN,[4],5.8 G/DL
same,URIC ACID,[4],1.35 mg/dL

# — ChEMBL document CHEMBL3885881, “DrugMatrix”
